# In ChEMBL document CHEMBL2401683, “Discovery of novel andrographolide derivatives as cytotoxic agents” (2013):
# Activity calls are given as the source filed them. The rule behind the calls is not given here.
# Assays:
# [1] = test system: KB; test: Growth inhibition of human KB cells after 72 hrs by SRB assay; assay type: functional
# [2] = Growth inhibition of human KBVIN cells after 72 hrs by SRB assay; assay type: functional
# [3] = test system: A549; test: Growth inhibition of human A549 cells after 72 hrs by SRB assay; assay type: functional; conditions: A549, 72 h
# [4] = test system: DU-145; test: Growth inhibition of human DU145 cells after 72 hrs by SRB assay; assay type: functional; conditions: DU-145, 72 h
# [5] = test system: PC-3; test: Induction of metaphase cell accumulation in human PC3 cells at 30 to 60 uM after 24 hrs by DAPI staining-based confocal microscopic analysis; assay type: functional
# [6] = test system: PC-3; test: Disruption of microtubule dynamics in human PC3 cells at 30 to 60 uM after 24 hrs by DAPI staining-based confocal microscopic analysis; assay type: functional, cell-based
SMILES,GI50 [1] [µM],GI50 [3] [µM],GI50 [4] [µM],GI50 [2] [µM],Activity [5],Activity [6]
C=C1CC[C@@H]2[C@](C)(COC(=O)CN(C)C)[C@H](OC(=O)CN(C)C)CC[C@@]2(C)[C@@H]1/C=C/C1=CCOC1=O,> 30,> 30,> 30,> 30,,
C=C1CC[C@@H]2[C@](C)(COC(=O)CCN3CCOCC3)[C@H](O)CC[C@@]2(C)[C@@H]1/C=C/C1=CCOC1=O,> 30,> 30,30.3,30,,
C=C1CC[C@@H]2[C@](C)(COC(=O)CCCCC3CCSS3)[C@H](O)CC[C@@]2(C)[C@@H]1/C=C/C1=CCOC1=O (stereo not given in full),> 30,> 30,> 30,> 30,,
C=C1CC[C@@H]2[C@]3(C)CO[C@@H](c4ccc(N(C)C)cc4)O[C@@H]3CC[C@@]2(C)[C@@H]1/C=C/C1=CCOC1=O,> 30,33,> 30,> 30,,
C=C1CC[C@@H]2[C@]3(C)CO[C@@H](c4ccco4)O[C@@H]3CC[C@@]2(C)[C@@H]1/C=C/C1=CCOC1=O,36.4,34,32.9,32.7,,
C=C1CC[C@@H]2[C@](C)(COC(=O)c3cccnc3)[C@H](OC(=O)c3cccnc3)CC[C@@]2(C)[C@@H]1/C=C/C1=CCOC1=O,> 30,> 30,> 30,> 30,,
C=C1CC[C@@H]2[C@](C)(COC(=O)CCN(C)C)[C@H](OC(=O)CCN(C)C)CC[C@@]2(C)[C@@H]1/C=C/C1=CCOC1=O,> 30,32,25.3,31.7,,
C=C1CC[C@@H]2[C@](C)(COC(=O)CCN3CCOCC3)[C@H](OC(=O)CCN3CCOCC3)CC[C@@]2(C)[C@@H]1/C=C/C1=CCOC1=O,> 30,> 30,> 30,> 30,,
C=C1CC[C@@H]2[C@]3(C)CO[C@@H](c4ccc([N+](=O)[O-])cc4)O[C@@H]3CC[C@@]2(C)[C@@H]1/C=C/C1=CCOC1=O,> 30,30.8,> 30,> 30,,

# The remaining molecules from weak to strong by GI50 [1], led by results:
GI50 [1] [µM],GI50 [3] [µM],GI50 [4] [µM],SMILES,GI50 [2] [µM],Activity [5],Activity [6]
32.9,26.9,32.1,C=C1CC[C@@H]2[C@]3(C)CO[C@@H](c4ccc(OC)cc4)O[C@@H]3CC[C@@]2(C)[C@@H]1/C=C/C1=CCOC1=O,> 30,,
23.7,22.8,19.1,C=C1CC[C@@H]2[C@]3(C)CO[C@@H](c4ccc(O)cc4)O[C@@H]3CC[C@@]2(C)[C@@H]1/C=C/C1=CCOC1=O,22.6,,
23.4,16.9,17.2,C=C1CC[C@@H]2[C@]3(C)CO[C@@H](c4ccc(C(F)(F)F)cc4)O[C@@H]3CC[C@@]2(C)[C@@H]1/C=C/C1=CCOC1=O,18.3,,
20.1,18.8,18.8,C=C1CC[C@@H]2[C@](C)(COC(=O)C3CCCN3C(=O)OC(C)(C)C)[C@H](O)CC[C@@]2(C)[C@@H]1/C=C/C1=CCOC1=O (stereo not given in full),17.9,,
13.2,13.4,16,C=C1CC[C@@H]2[C@](C)(CO)[C@H](O)CC[C@@]2(C)[C@@H]1C/C=C1/C(=O)OC[C@H]1O [ANDROGRAPHOLIDE],13.8,Active,
12.5,10.2,11.1,C=C1CC[C@@H]2[C@](C)(COC(=O)C3CCCN3C(=O)OC(C)(C)C)[C@H](OC(=O)C3CCCN3C(=O)OC(C)(C)C)CC[C@@]2(C)[C@@H]1/C=C/C1=CCOC1=O (stereo not given in full),11.1,,
11.7,10.2,11.8,C=C1CC[C@@H]2[C@](C)(COC(=O)CCCCC3CCSS3)[C@H](OC(=O)CCCCC3CCSS3)CC[C@@]2(C)[C@@H]1/C=C/C1=CCOC1=O (stereo not given in full),12.9,,
8.24,4.87,8.63,C=C1CC[C@@H]2[C@](C)(COC(=O)c3cnccn3)[C@H](OC(=O)c3cnccn3)CC[C@@]2(C)[C@@H]1/C=C/C1=CCOC1=O,9.19,,
2.55,1.46,2.27,C=C1CC[C@@H]2[C@](C)(COC(=O)C3CCN(C)CC3)[C@H](OC(=O)C3CCN(C)CC3)CC[C@@]2(C)[C@@H]1/C=C/C1=CCOC1=O,3,inactive,Active
